Consider three molecules from patent US20110077215A1, “DNA Methylation As A Target For Diagnosis And Treatment Of Chronic Lymphocytic Leukema (CLL)” (THE UNIVERSITY OF UTAH RESEARCH FOUNDATION, priority 2005, published 2011).

“Also recorded” adds a separate entry of the source. Marks after values point to notes of the source that are not given here.

One series has as its system patients with CLL. Kind of series: Dose-escalation study of low-dose 5-azacytidine: toxicity. The format is in vivo, human. How it is done: (§1) Patients with CLL not in immediate need for cytoreductive therapy are enrolled on a dose-escalation study of low-dose 5-azacytidine (Vidaza, provided by the Pharmion Corporation.) Patients must have a KPS greater than 70%, white blood cell count greater than 20,000/μL hemoglobin >8 g/dL, platelet count >50,000/μL, normal liver, and renal functions. The study was carried out in 2 stages using a modification of the design proposed by Storer. {Storer, 1989 #16} In the first stage, patients were enrolled as single patient cohorts until either at least a 20% DNA MI inhibition or a greater than grade II toxicity. This allowed us to get closer to the target biologically effective dose before enrolling three patient cohorts. The global DNA MI and the miRNA expression profile of 6 patients before and after 5-azacytidine in the patients in the first stage of the study protocol was determined. Patients received 10-70 mg/m^2/day on days 1-3 and days 8-10.

Series [1] deals with global DNA methylation. Kind of series: Global DNA MI (HPLC) before and after low-dose 5-azacytidine. The format is in vivo, human.
In series [2] the test system is miRNA expression in patients with CLL. Nature of the series: miRNA expression profile (Taqman real-time PCR) before and after DNA methylation inhibitor. The format is in vivo, human. To be noted: for Changes in bcl-2, p53, mir-15, mir-16: after treatment; for miR-34a and miR-195 expression: patients with decreased lymphocytosis following drug treatment; for Expression of mir-17-3p, mir-21, mir-29a/b/c, mir-30e, mir-104, mir-126, mir-128a, mir-130a, mir-141, mir-142-3p, mir-148a, mir-151, mir-199a, mir-199a*, mir-301: real-time PCR, Early Access Human Panel; for microRNA expression after treatment: six patients on 5-azacytidine, one patient on 2-chloro-2-deoxyadenosine. How it is done: The DNA MI was measured in each patient before and after treatment with low dose cladribine.
as §1
Total RNA is extracted with Trizol, as previously described. {O'Donnell, 2005 #182} MiRNA expression was determined using the Applied Biosystems Taqman MicroRNA Assays Human Panel Early Access Kit. 10 ηg of RNA is used for each sample. cDNA is made using a looped RT primer provided by the kit. A 1 to 5 dilution of the cDNA is used for each sample and used for quantitative PCR on the ABI 7900HT Fast Real-Time PCR System. MiRNA-specific forward and reverse primers were provided in plates A and B. MiR-16 and let-7a served as positive controls while let-2 served as a negative control for human samples. Each miRNA were performed in quadriplicates. The miRNA expression was determined for CD5^+B-lymphocytes obtained from pediatric tonsils and from B-lymphocytes of 5 healthy controls.
Two different DNA methylation inhibitors were studied with respect to re-expression of microRNA: a DNA methyltransferase enzyme inhibitor, 5-azacytidine, and a methyl substrate inhibitor, 2-chloro-2-deoxyadenosine. […] Mir-17-3p and mir-21 have anti-apoptotic properties.

Series [3] deals with global DNA methylation. Nature of the series: Global methylation analysis after continuous infusion Decitabine. The settings on record: patients treated with Decitabine. The format is in vivo, human. The method, then: All patients were treated with continuous infusion Decitabine given intravenously in an inpatient setting. […] The method for assessing DNA methylation was consistent and reproducible (Samlowski et al. Manuscript submitted to JCO).

The subject of series [4] is patients with chronic lymphocytic leukemia. Kind of series: Phase I dose-escalation of low-dose subcutaneous cladribine: clinical response and toxicity. Format: in vivo, human. The method, then:
Additional inclusion criteria included: KPS>70%, absolute neutrophil count >1500/μl, platelet count >100,000/μl, creatinine <2.0 mg/dl, normal liver function tests, no evidence of active infections on chest x-ray or urinalysis, and no concurrent chemotherapy or radiation therapy within 4 weeks of registration. Each patient signed an informed consent form approved by the University of Utah institutional review board, Clinical Cancer Investigation Committee, and Salt Lake City Veterans Administration Medical Center (SLC VAMC) Research and Development office.
The study accrued three patients from the VAMC and two patients from the Huntsman Cancer Institute at the University of Utah from January to May 2005. The patients were given three consecutive subcutaneous injections of cladribine (Leustatin) once every 28-32 days, starting at a dose of 0.05 mg per kg per day. The primary endpoint of the study was to find the dose of cladribine which caused a 20% decrease in global DNA methylation. Each patient served as their own control, and was dose-escalated every 28-32 days by 0.01 mg per kg per day if the primary endpoint was not met. Patients were given prophylactic doses of trimethoprim/sulfamethoxazole for the prevention of pneumocystis carinii. Patients allergic to trimethoprim/sulfamethoxazole were prescribed prophylactic doses of dapsone. No clinical endpoints were written into the study initially. […] A clinical response was defined by the NCI-sponsored working group for CLL. (See Cheson et al., BLOOD (1996) 87:4990-97). A patient was considered to have completed the study when the total white blood count was less than 10,000 cells/μl after two consecutive weekly blood counts. The entire study was conducted at the University of Utah General Clinical Research Center (GCRC). Leustatin was provided to the patients by Tibotec Therapeutics, a division of Johnson and Johnson.
Five patients with CLL were given subcutaneous injections of cladribine (Leustatin, provided by Tibotec Therapeutics) on three consecutive days at 28-32 day intervals, starting at a dose of 0.05 mg/kg/day, approximately ⅓ of the recommended therapeutic dose. {Juliusson, 1993 #10; Juliusson, 1996 #11} Five patients with a confirmed diagnosis of CLL (Table 3) participated in an Institutional Review Board-approved protocol between January and May 2005 after informed consent was obtained. […] Inclusion criteria included: KPS>70%, absolute neutrophil count >1500/μL, platelet count >100,000/μL, creatinine <2.0 mg/dL, normal liver function tests, no evidence of active infections, and no concurrent chemotherapy or radiation therapy within 4 weeks of registration.

Series [5] deals with global DNA methylation. Kind of series: Global DNA methylation (HPLC of digested genomic DNA) before and after low-dose cladribine. The format is in vivo, human.
The test system of series [6] is histone 3 (H3) methylation in CLL cells. Kind of series: Histone methylation immunofluorescence of CLL cells after low-dose cladribine. The format is in vivo, human. The method, then:
The DNA and the mononuclear cells from the buffy coat were stored from the majority of patient samples. DNA was used for global DNA methylation studies and the mononuclear cells from the buffy coat were used to measure changes in H3 methylation by immunofluorescence before and after treatment.
3×10^4 CLL cells were mounted onto a slide by cytospin at 800 rpm for 3 minutes. They were then fixed in 95% ethanol/5% acetic acid for 10 minutes, followed by incubation in 0.25 M sodium butyrate for 24 hours at room temperature. The slides were stained by the Ventana automated immunostainer at 40° C. The slides were first stained with the primary antibody (1:50) for 32 minutes, followed by staining with the secondary antibody (sheep or rabbit IgG-FITC) (1:200) for 32 minutes. Slides were counterstained with DAPI (1:100) for 1 minute and hematoxylin (Ventana Medical Systems) for 4 minutes. Fluorescent detection was performed with the IView DAB detection kit (Ventana Medical Systems). Intensity of fluorescence was quantitated by a wide field fluorescent microscope and quantified by the Openlab modular imaging software. Signal to noise was optimized by the software.
A histone methylation assay that uses immunofluorescence to assess for histone methylation patterns after treatment with low-doses of cladribine was developed. […] These states are associated with transcription silencing. (See Jaskelioff et al., Nat. Cell. Biol. (2003) 5:395-99). In FIG. 4, an average of 100 cells was quantitated in the fluorescence intensity at each time point. The asterisk corresponds to days of treatment with cladribine. The error bars at each time point refer to the range of antibody staining in all cells. […] Multiparametric flow cytometry may be utilized to analyze further which subset of CLL cells respond to low doses of drugs.

The test system of another series is HT-29 cells. Kind of series: DNA microarray analysis of gene re-expression after Cladribine. The format is cell-based. To be noted: HT-29 colon cancer cell line.
Where [7] appears, read: low-dose cladribine s.c., 5 CLL patients.
Where [8] appears, read: low-dose cladribine, 5 patients.
The mark [9] stands for this setting: CLL cells after low dose cladribine.

Description for HT-29 cells: Lymphocytes are inclubated with 0-3 μM Cladribine.
Total RNA is isolated with RNeasy mini kits (Qiagen) from samples treated with Cladribine or vehicle. Approximately 1 μg may be amplified using Message Amp kits (Ambion). In replicate experiments, DNA from the vehicle or treated samples may be variably labeled with Cy-3 and Cy-5 dye and two microarray experiments may be performed for each dye-orientation. The utilized microarray slides consist of 9600 genes from the Research Genetics 40k sequence-verified human clone set. Each sample is deposited in duplicate, with a Lucidea (Amersham) robotic spotter. After hybridization, the microarray slides are scanned with an Axon scanner, and data quantified using Imagene and GeneSight software. The local background is subtracted. Data points with no signal, high background, or spot asymmetry are eliminated. Genes with low expression and low signal intensity are adjusted to a minimal raw value of 5 to avoid unwarranted mathematical distortions due division by decimals <<1. After calculating the ratio of the Cy5/Cy3 fluorescence signal intensity for each gene, data is normalized relative to the mean intensity from all genes. […] Data is analyzed with Spotfire software for statistical and hierarchical cluster analysis using an unweighted pair-group method with arithmetic mean with a Euclidean distance metric.

As to `Nc1ncn([C@@H]2O[C@H](CO)[C@@H](O)[C@H]2O)c(=O)n1` [5-azacytidine], the Toxicity result in the series on patients with CLL (5th patient, 60 mg/m^2/day) is “grade II thrombocytopenia and anemia”. In the series on patients with CLL (the other patients, 10-70 mg/m^2/day), the Toxicity entry is “No other toxicities were observed”. Moreover, the “Global decrease of DNA methylation after treatment” value with global DNA methylation [1] (6 out of 7 patients, pooled with the 2-chloro-2-deoxyadenosine patient) was 8%. Besides, the “Decrease in global DNA MI” value in the series with global DNA methylation [1] (four out of the 6 patients, low-dose 5-azacytidine) is reported as around 10%. Besides, the “Change in global DNA MI” value in the series with global DNA methylation [1] (patients 2 and 4, low-dose 5-azacytidine) is “No change”. Also, in series [2], the “Changes in bcl-2, p53, mir-15, mir-16” value was “No changes”; the “miR-34a and miR-195 expression” value was “upregulated”; the “Expression of mir-17-3p, mir-21, mir-29a/b/c, mir-30e, mir-104, mir-126, mir-128a, mir-130a, mir-141, mir-142-3p, mir-148a, mir-151, mir-199a, mir-199a*, mir-301” value is recorded as “consistent microRNA upregulation”; the “microRNA expression after treatment” value is “Increased microRNA expression”.
For `Nc1ncn([C@H]2C[C@H](O)[C@@H](CO)O2)c(=O)n1` [Decitabine, 5-aza-2-deoxycytidine], the “Decrease in global DNA methylation level achievable” value in the series on global DNA methylation [3] is reported as at least 20%.
Take `Nc1nc(Cl)nc2c1ncn2[C@H]1C[C@H](O)[C@@H](CO)O1` [cladribine, 2-chlorodeoxyadenosine]: the “Hemoglobin change over the course of the study” value in series [4] (Patient 1) was “did not exhibit a decrease in hemoglobin”. The Toxicities overall entry in series [4] (low-dose cladribine 0.05-0.09 mg per kg per day) is “without toxicities”. The “Clinical response (NCI-sponsored working group)” value in series [4] (low-dose cladribine 0.05-0.09 mg per kg per day, 3 days every 28 days) is “induce a clinical response in some patients; also recorded: partial response; also recorded: Three out of the five”. Moreover, in series [4] (setting [7]), the “CR (number of patients)” value is given as 0, the “PD (number of patients)” value was 1 and the PR duration came to 5 months. Moreover, in series [4] (setting [8]), the “Hematologic toxicities Grade III/IV (number of patients)” value is recorded as “Grade III/IV (0)”, the “Non-hematologic toxicities Grade I/II (number of patients)” value was “Grade I/II (2)*” and the “Non-hematologic toxicities Grade III/IV (number of patients)” value was “Grade III/IV (0)”. The “Non-hematologic toxicities observed (adverse events)” value in series [4] (low-dose cladribine, events in patient 4) is reported as “Two grade II non-hematologic toxicities; also recorded: grade II lymphadenitis; also recorded: second grade II infection, a community-acquired pneumonia”. Besides, the “Decrease in lymphocyte count by 50% (time)” value in series [4] (mean of the 5 patients on trial, range 8-67 days) was 48 days (8-67 days)**. The Hemoglobin in series [4] (mean of the 5 patients on trial, range 12.1-16 g/dL) is on record as 14.6 g/dL (12.1-16 g/dL)**. Also, the Platelet count in series [4] (mean of the 5 patients on trial, range 133-438k/μL) is on record as 224k/μL (133-438k/μL)**. Further, the “Reduction in circulating leukemia cells” value in series [4] (patient 1, dose escalation) was “did not demonstrate a reduction in circulating leukemia cells until the third dose escalation of 0.07 mg per kg per day”. The “Outcome of patient 3 (previously treated)” value in series [4] (patient 3, higher baseline global DNA methylation) was “progressive disease; also recorded: progression with a gradually increasing white blood count”. Moreover, in series [4] (patient 5, first dose 0.05 mg per kg per day), the “White blood cell count change” value is recorded as “dramatic reduction in white blood cell count”. Also, the “Reduction in white blood cell count” value in series [4] (patients 1, 2, 4 and 5 after low dose cladribine) is at least 50%. In addition, in the series on global DNA methylation [5] (6 out of 7 patients, pooled with the six 5-azacytidine patients), the “Global decrease of DNA methylation after treatment” value was found to be 8%. Further, the “Effect on global DNA methylation” value in the series with global DNA methylation [5] (low-dose cladribine) was “modest response; also recorded: not an effective DNA methylation inhibitor; also recorded: minimal inhibition in global DNA methylation”. For the same molecule, in series [6] (setting [9]), the “H3 dimethylated lysine 9 immunofluorescence” value is on record as “Little change”; the “H3 monomethylated lysine 4 immunofluorescence” value is on record as “decreased to levels akin to signal intensity obtained from total histone 3; also recorded: decrease transiently”; the “H3 monomethylated lysine 9 immunofluorescence” value is “increase and rise”; the “H3 phospho-serine 10 immunofluorescence” value is “decrease and rise”. The “H3 trimethylated lysine 9 immunofluorescence” value in series [6] (setting [9]) is “increase in trimethylated lysine 9 approximately 1 week later and increase and rise”. Also, in series [6] (patient 4, 0.05 mg per kg per day cladribine), the “Total histone 3 immunofluorescence” value is “minimal changes”. Besides, the “Re-expression of silenced genes (DNA microarray)” value in the series with HT-29 cells was “re-expression of silenced genes in HT-29 cells”. For the same molecule, in series [2], the “Changes in bcl-2, p53, mir-15, mir-16” value was “No changes”; the “miR-34a and miR-195 expression” value is “upregulated”; the “Expression of mir-17-3p, mir-21, mir-29a/b/c, mir-30e, mir-104, mir-126, mir-128a, mir-130a, mir-141, mir-142-3p, mir-148a, mir-151, mir-199a, mir-199a*, mir-301” value is reported as “consistent microRNA upregulation”; the “microRNA expression after treatment” value is recorded as “Increased microRNA expression”.
